Data set [1] concerns the target Glycogen synthase kinase-3 beta (Homo sapiens, UniProt P49841). As to the kind of experiment: Inhibition of GSK3-beta (unknown origin).
A short description of data set [2]: Inhibition of tau 4R1N phosphorylation (unknown origin) at S396 residue transfected in human U2OS cells coexpressing GFP-tagged beta catenin incubated overnight by high content imaging assay.
Data set [3] is described as follows: Inhibition of N-terminal 6-His tagged human recombinant GSK3-beta H355L mutant using FL-KRREILSRRP[ps]ERYR-NH2 as substrate incubated for 20 hrs.
In data set [4] the target is Glycogen synthase kinase-3 alpha (Homo sapiens, UniProt P49840). As to the kind of experiment: Inhibition of full length GST-tagged human recombinant GSK3-alpha using FL-KRREILSRRP[ps]ERYR-NH2 as substrate incubated for 20 hrs.
Sequence of Glycogen synthase kinase-3 alpha (P49840 whole entry, the tested form may be a part): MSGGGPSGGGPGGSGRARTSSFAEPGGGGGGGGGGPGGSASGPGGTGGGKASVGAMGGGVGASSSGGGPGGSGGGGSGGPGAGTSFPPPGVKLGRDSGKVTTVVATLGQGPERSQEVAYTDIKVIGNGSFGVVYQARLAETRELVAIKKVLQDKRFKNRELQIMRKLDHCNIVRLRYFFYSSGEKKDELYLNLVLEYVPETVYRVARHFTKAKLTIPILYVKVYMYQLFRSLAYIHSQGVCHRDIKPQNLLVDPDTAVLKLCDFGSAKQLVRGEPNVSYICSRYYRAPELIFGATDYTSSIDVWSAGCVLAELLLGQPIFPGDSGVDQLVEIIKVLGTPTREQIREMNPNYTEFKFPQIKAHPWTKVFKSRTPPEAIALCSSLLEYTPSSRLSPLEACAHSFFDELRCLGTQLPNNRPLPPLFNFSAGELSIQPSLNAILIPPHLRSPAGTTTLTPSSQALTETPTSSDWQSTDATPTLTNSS
Data set [5] in a line: Permeability of compound at pH 7.4 incubated for 4 hrs by PAMPA assay. Particulars: read-out: permeability. The data set is classed as ADME. Background: The PAMPA barrier holds no transporters, so it reflects passive diffusion.
Data set [6] in a line: Permeability across basolateral to apical side in human Caco-2 cells at 3 uM incubated for 2 hrs by LC-MS/MS analysis. The data set is classed as ADME, cell-based. Particulars: read-out: permeability. (In general: Passage across Caco-2 layers is used to estimate intestinal permeability.)
Data set [7] in a line: Metabolic stability in human liver microsomes assessed as parent compound remaining at 0.5 uM incubated for 10 mins by LC-MS/MS analysis. The data set is classed as ADME, Microsome. Particulars: read-out: Stability. In general terms: Microsomes from liver hold many membrane-bound enzymes, among them those of drug oxidation.
A short description of data set [8]: Permeability across apical to basolateral side in human Caco-2 cells at 3 uM incubated for 2 hrs by LC-MS/MS analysis. The class given is ADME, cell-based. To be noted: read-out: permeability.
The nature of data set [9]: Plasma protein binding in human assessed as unbound fraction at 10 uM measured for 5 hrs by equilibrium dialysis based LC-MS/MS analysis. The class given is ADME, cell-free.
The nature of data set [10]: Plasma protein binding in mouse assessed as unbound fraction at 10 uM measured for 5 hrs by equilibrium dialysis based LC-MS/MS analysis. The data set is classed as ADME, cell-free.
Data set [11] is described as follows: Metabolic stability in mouse liver microsomes assessed as parent compound remaining at 0.5 uM incubated for 10 mins by LC-MS/MS analysis. The class given is ADME, Microsome. To be noted: read-out: Stability.
The target of a further data set is P-glycoprotein (ABCB1) (Homo sapiens, UniProt P08183). As to the kind of experiment: Substrate activity at P-glycoprotein in human Caco-2 cells assessed as efflux ratio of permeability across basolateral to apical side over apical to basolateral side at 3 uM incubated for 2 hrs by LC-MS/MS analysis. The class given is ADME, cell-based.
Sequence of P-glycoprotein (ABCB1) (P08183 whole entry): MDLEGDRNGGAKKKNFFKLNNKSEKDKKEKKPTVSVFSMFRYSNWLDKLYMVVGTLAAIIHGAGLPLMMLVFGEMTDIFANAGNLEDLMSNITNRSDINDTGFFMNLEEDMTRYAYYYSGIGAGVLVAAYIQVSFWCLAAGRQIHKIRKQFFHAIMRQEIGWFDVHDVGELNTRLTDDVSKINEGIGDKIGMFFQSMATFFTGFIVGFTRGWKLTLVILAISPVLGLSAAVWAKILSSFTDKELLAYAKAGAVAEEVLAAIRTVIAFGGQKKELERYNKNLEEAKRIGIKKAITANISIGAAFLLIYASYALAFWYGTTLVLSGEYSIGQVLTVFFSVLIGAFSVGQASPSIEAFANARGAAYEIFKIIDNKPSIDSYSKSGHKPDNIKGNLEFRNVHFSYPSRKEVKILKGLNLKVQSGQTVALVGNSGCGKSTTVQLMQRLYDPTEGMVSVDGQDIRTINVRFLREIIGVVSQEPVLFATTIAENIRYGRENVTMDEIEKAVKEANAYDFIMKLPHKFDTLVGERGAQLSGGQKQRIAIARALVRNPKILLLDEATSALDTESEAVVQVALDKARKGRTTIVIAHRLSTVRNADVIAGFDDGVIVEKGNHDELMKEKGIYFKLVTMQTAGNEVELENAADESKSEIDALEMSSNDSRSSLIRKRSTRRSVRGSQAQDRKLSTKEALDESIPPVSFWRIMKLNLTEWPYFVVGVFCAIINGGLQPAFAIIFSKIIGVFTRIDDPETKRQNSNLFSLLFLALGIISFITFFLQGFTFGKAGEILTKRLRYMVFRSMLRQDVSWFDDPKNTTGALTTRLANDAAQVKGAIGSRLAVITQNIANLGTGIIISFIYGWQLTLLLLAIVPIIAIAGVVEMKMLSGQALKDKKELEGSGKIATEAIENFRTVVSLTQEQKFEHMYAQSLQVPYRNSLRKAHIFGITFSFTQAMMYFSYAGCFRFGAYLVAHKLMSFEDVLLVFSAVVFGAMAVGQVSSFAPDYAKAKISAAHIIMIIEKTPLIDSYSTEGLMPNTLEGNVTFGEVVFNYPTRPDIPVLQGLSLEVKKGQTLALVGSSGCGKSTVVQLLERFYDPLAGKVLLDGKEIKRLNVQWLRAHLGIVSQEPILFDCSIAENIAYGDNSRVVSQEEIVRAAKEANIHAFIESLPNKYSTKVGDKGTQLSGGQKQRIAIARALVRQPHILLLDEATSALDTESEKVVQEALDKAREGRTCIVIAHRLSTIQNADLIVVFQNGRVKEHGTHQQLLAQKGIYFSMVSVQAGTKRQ
Data set [12] can be described thus: Permeability of compound at pH 5.5 incubated for 4 hrs by PAMPA assay. The data set is classed as ADME. To be noted: read-out: permeability.
Data set [13] is described as follows: Oral bioavailability in 8 hr fasted C57BL6 mouse at 10 mg/kg. To be noted: in vivo. The data set is classed as ADME, organism-based.
Data set [14] is described as follows: MRT in 8 hr fasted C57BL6 mouse at 2 mg/kg, iv. The data set is classed as ADME, organism-based. To be noted: in vivo.
Data set [15] in a line: Half life in 8 hr fasted C57BL6 mouse at 2 mg/kg, iv. The data set is classed as ADME, organism-based. To be noted: in vivo.
Data set [16] in a line: Volume of distribution at steady state in 8 hr fasted C57BL6 mouse at 2 mg/kg, iv. Particulars: in vivo, read-out: Vdss. The data set is classed as ADME, organism-based.
A short description of data set [17]: AUC tot in 8 hr fasted C57BL6 mouse at 10 mg/kg, po. The data set is classed as ADME, organism-based. Details: dose 10 mg/kg, route po. Particulars: in vivo.
Data set [18] can be described thus: Cmax in 8 hr fasted C57BL6 mouse at 10 mg/kg, po. The data set is classed as ADME, organism-based. Set-up: dose 10 mg/kg, route po. Particulars: in vivo.
Data set [19] is described as follows: Clearance in 8 hr fasted C57BL6 mouse at 2 mg/kg, iv. To be noted: in vivo. The class given is ADME, organism-based.

pIC50: −log10 of the molar value.

Sequence of Glycogen synthase kinase-3 beta (P49841 whole entry): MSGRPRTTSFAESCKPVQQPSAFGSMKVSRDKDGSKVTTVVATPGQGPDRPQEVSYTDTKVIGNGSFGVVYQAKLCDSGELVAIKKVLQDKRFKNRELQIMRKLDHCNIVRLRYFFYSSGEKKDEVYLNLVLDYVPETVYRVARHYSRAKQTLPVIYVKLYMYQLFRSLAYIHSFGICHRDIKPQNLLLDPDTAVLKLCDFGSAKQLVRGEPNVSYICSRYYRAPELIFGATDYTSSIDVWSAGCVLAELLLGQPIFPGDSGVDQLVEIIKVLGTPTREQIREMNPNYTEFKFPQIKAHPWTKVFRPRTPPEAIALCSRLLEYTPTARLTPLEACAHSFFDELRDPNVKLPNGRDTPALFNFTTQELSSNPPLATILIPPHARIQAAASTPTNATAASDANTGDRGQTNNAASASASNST

Turning to `CC(C)OCCCC(=O)c1n[nH]cc1NC(=O)c1ccccc1`, in [1], the pIC50 (in general, the IC50 on a negative log10 scale, so that one unit is a factor of ten) was 8.70.

Consider `CC(C)Oc1ccncc1NC(=O)c1ccnn2cc(-c3ccccc3)nc12`, for which the pIC50 in data set [2] was 7.08; in data set [3] it was 9.15; in data set [4], 9.39.

As for `C[C@@H]1CN(c2ccncc2NC(=O)c2ccnn3cc(-c4ccccc4)nc23)CCO1`, the figures for the pIC50 in data set [3] and in [4] were 9.09 and 9.47, respectively.

With `O=C(Nc1cnccc1N1CCC(F)(F)CC1)c1ccnn2c(NCC3CC3)cnc12`, the pIC50 is 7.39 in data set [2], 9.06 in data set [3] and 8.85 in [4].

For `O=C(Nc1cnccc1-c1ccccc1)c1ccnn2c(NCC3CC3)cnc12`, the values for the pIC50 in data set [3] and in data set [4] were 8.46 and 8.70, respectively.

`O=C(Nc1cnccc1N1CCC(F)(F)CC1)c1ccnn2ccnc12`: the pIC50 in data set [3] is 8.34; in data set [4], 8.62.

Consider `COc1ccccc1-c1cn2nccc(C(=O)Nc3cnccc3N3CCOC(C)C3)c2n1` (centres undefined), for which the pIC50 in [3] was 9.24; in data set [4], 9.42.

On to `O=C(Nc1cnc(Cl)cc1N1CCC(F)(F)CC1)c1ccnn2cc(-c3ccccc3)nc12`, for which the pIC50 in [3] is 7.85.

Regarding `CC1CN(c2ccncc2NC(=O)c2ccnn3c(NCC4CC4)cnc23)CCO1` (centres undefined), the negative logarithm of the IC50 (pIC50) in data set [3] was 8.28.

Consider `CC1CN(c2ccncc2NC(=O)c2ccnn3ccnc23)CCO1` (centres undefined), for which the pIC50 in [3] is 8.15.

`Cc1ccncc1NC(=O)c1ccnn2c(NCC3CC3)cnc12`: in [3], the pIC50 was 7.20.

With `O=C(Nc1cnccc1N1CCC(F)(F)CC1)c1ccnn2cc(-c3ccccc3)nc12`, the Papp at 4 h in data set [5] came out at 64.2 ×10⁻⁶ cm/s; in [12] it was 58.1 ×10⁻⁶ cm/s. Also, the pIC50 in [2] is 7.52; in [3] it was 9.43; in data set [4], 9.66. The Papp B→A at 2 h, 3 µM in data set [6] amounted to 3 ×10⁻⁶ cm/s. Moreover, the remaining at 10 min, 0.5 µM came out at 40% in data set [7] and 36% in data set [11]. Moreover, the Papp A→B at 2 h, 3 µM in data set [8] was 7 ×10⁻⁶ cm/s. For the same compound, the values for the free fraction (fraction unbound) at 5 h, 10 µM in data set [9] and in data set [10] were 0.005 and 0.002, respectively. Also, the efflux ratio (in general, a quotient of directional permeabilities that is used to spot active efflux) at 2 h, 3 µM at P-glycoprotein (ABCB1) is less than 1.

Consider `O=C(Nc1cnccc1-c1ccccc1)c1ccnn2cc(-c3ccccc3)nc12`, for which the Papp at 4 h in [5] was 28.2 ×10⁻⁶ cm/s; in [12] it was 20.2 ×10⁻⁶ cm/s. The negative logarithm of the IC50 (pIC50) is 6.04 in data set [2] and 8.44 in data set [3]. The remaining at 10 min, 0.5 µM turned out to be 79% in data set [7] and 83% in data set [11]. Also, the fraction unbound (usually free concentration divided by total concentration) at 5 h, 10 µM in data set [9] was less than 0.001; in [10] it was 0.003.

In the case of `O=C(Nc1cnccc1-c1ccc(F)cc1)c1ccnn2cc(-c3ccccc3)nc12`, the pIC50 is 8.80 in data set [3] and 8.96 in data set [4]. Moreover, the remaining at 10 min, 0.5 µM is 91% in data set [7] and 92% in data set [11]. Moreover, the fraction unbound at 5 h, 10 µM in data set [9] was found to be 0.003; in [10], 0.002. In data set [12], the Papp at 4 h was determined as 96 ×10⁻⁶ cm/s.

For the compound `O=C(Nc1cnccc1N1CCOCC1)c1ccnn2cc(-c3ccc(C(F)(F)F)cc3)nc12`, the negative logarithm of the IC50 (pIC50) in data set [3] is 9.11; in data set [4] it was 9.64.

In the case of `O=C(Nc1cnccc1N1CCC(F)(F)CC1)c1ccnn2cc(C3CC3)nc12`, the pIC50 in data set [2] was 6.92; in data set [3], 9.37; in [4], 9.74.

For `CC1CN(c2ccncc2NC(=O)c2ccnn3cc(-c4ccc(C(F)(F)F)cc4)nc23)CCO1` (centres undefined), the pIC50 in [3] was 8.85; in data set [4], 9.24.

For `O=C(Nc1cccnc1)c1ccnn2cc(-c3ccccc3)nc12`, the pIC50 in data set [4] is 8.17.

On to `O=C(Nc1cnccc1N1CCCCC1)c1ccnn2cc(-c3ccccc3)nc12`, for which the results for the pIC50 in data set [3] and in [4] were 8.96 and 9.62, respectively.

For the compound `O=C(Nc1cnccc1-c1ccc(F)cc1)c1ccnn2cc(C3CC3)nc12`, the pIC50 in [3] is 8.72; in data set [4], 9.36.

Take `C[C@@H]1COCCN1c1ccncc1NC(=O)c1ccnn2cc(-c3ccccc3)nc12`: in [3], the pIC50 was 8.47.

Consider `C[C@H]1CN(c2ccncc2NC(=O)c2ccnn3cc(-c4ccccc4)nc23)CCO1`, for which the pIC50 in [3] is 9.89; in data set [4] it was 10.00.

For the compound `CS(=O)(=O)c1ccncc1NC(=O)c1ccnn2cc(-c3ccccc3)nc12`, the pIC50 in [3] is 8.82.

`Cc1ccncc1NC(=O)c1ccnn2cc(-c3ccccc3)nc12`: the negative logarithm of the IC50 (pIC50) in [3] is 8.46.

For `O=C(Nc1cnccc1N1CCOCC1)c1ccnn2cc(-c3ccccc3)nc12`, the values for the Papp at 4 h in data set [5] and in data set [12] were 29.8 ×10⁻⁶ cm/s and 7.8 ×10⁻⁶ cm/s, respectively. Further, the figures for the pIC50 in data set [2], in data set [3] and in data set [4] were 7.44, 9.38 and 9.68, respectively. For the same compound, in data set [6], the Papp B→A at 2 h, 3 µM stood at 9.9 ×10⁻⁶ cm/s. In addition, the bioavailability (commonly dose-corrected exposure relative to a reference, in per cent) in data set [13] was 100%. The figures for the remaining at 10 min, 0.5 µM in [7] and in [11] were 31% and 9%, respectively. Further, the Papp A→B at 2 h, 3 µM in data set [8] is 32.2 ×10⁻⁶ cm/s. Besides, in [14], the MRT (usually a mean duration of stay, worked out from the concentration-time curve) was found to be 2.4 h. The half-life (in general, the time needed for the level to fall by half in the phase considered) in data set [15] was 186 min. Further, the figures for the fraction unbound at 5 h, 10 µM in [9] and in [10] were 0.012 and 0.01, respectively. Besides, the Vd in data set [16] is 1.5 L/kg. Besides, the AUC (in general, the area under the concentration-time curve, a measure of exposure) in data set [17] came to 47 µM·h. Further, the efflux ratio at 2 h, 3 µM at P-glycoprotein (ABCB1) is less than 1. In addition, the highest level in [18] (Cmax) was 10.7 µM. Also, the clearance (commonly the rate of elimination divided by the concentration) in [19] stood at 10.6 mL/min/kg.

On to `CC(C)Oc1ccncc1NC(=O)c1ccnn2c(NCC3CC3)cnc12`, for which the pIC50 in [3] is 8.17.

With `O=C(Nc1cnccc1N1CCOCC1)c1ccnn2c(NCC3CC3)cnc12`, the pIC50 in [3] is 8.05.

Turning to `COc1cncc(NC(=O)c2ccnn3cc(-c4ccccc4)nc23)c1`, the results for the pIC50 in data set [3] and in data set [4] were 7.43 and 8.12, respectively.

Regarding `CC1CN(c2ccncc2NC(=O)c2ccnn3cc(C4CC4)nc23)CCO1` (centres undefined), the results for the Papp at 4 h in data set [5] and in data set [12] were 107 ×10⁻⁶ cm/s and 86.9 ×10⁻⁶ cm/s, respectively. The pIC50 was 7.22 in data set [2] and 8.59 in data set [3]. Further, the Papp B→A at 2 h, 3 µM in data set [6] was found to be 13.3 ×10⁻⁶ cm/s. Besides, the bioavailability in data set [13] was determined as 37%. Also, the remaining at 10 min, 0.5 µM in [7] was 3%; in data set [11], 4%. In [8], the Papp A→B at 2 h, 3 µM amounted to 22.3 ×10⁻⁶ cm/s. Besides, the MRT in [14] is 0.6 h. The half-life in data set [15] is 66 min. Besides, the free fraction (fraction unbound) at 5 h, 10 µM in data set [9] stood at 0.015; in [10], 0.031. In data set [16], the Vd was 1.9 L/kg. The AUC in data set [17] was 3.3 µM·h. In addition, on P-glycoprotein (ABCB1), the efflux ratio at 2 h, 3 µM was less than 1. In addition, the peak level in data set [18] (Cmax) was 1.3 µM. In addition, the clearance in data set [19] worked out at 49.5 mL/min/kg.

For `C[C@H]1COCCN1c1ccncc1NC(=O)c1ccnn2cc(-c3ccccc3)nc12`, in data set [4], the negative-log IC50 (pIC50) was 9.49.

Regarding `O=C(Nc1cccnc1)c1ccnn2c(NCC3CC3)cnc12`, the pIC50 in data set [3] is 6.66; in data set [4] it was 6.29.

As for `O=C(Nc1cnccc1OCC(F)(F)F)c1ccnn2cc(-c3ccccc3)nc12`, the pIC50 in [3] was 9.54; in [4], 10.05.

These data come from ChEMBL document CHEMBL5247659, “Design, Structure-Activity Relationships, and In Vivo Evaluation of Potent and Brain-Penetrant Imidazo[1,2-b]pyridazines as Glycogen Synthase Kinase-3β (GSK-3β) Inhibitors” (J Med Chem, 2023).
